The text below walks through data of patent EP1091938B1, “ANTIHISTAMINIC PIPERIDINE DERIVATIVES AND INTERMEDIATES FOR THE PREPARATION THEREOF” (Aventisub II Inc., priority 1998, dated 2000).

The conditions of data set [1]: extent of first pass metabolism to two primary metabolites; cited from earlier work.
In data set [2] the target is T1, H1-histaminergic receptors (Rattus norvegicus, UniProt P31390).
T1 construct: The brains of young male rats are removed; The cortici are dissected; from tissue; host or cells: rat brain cortex membrane homogenate
The experiment in a line: [3H] pyrilamine binding in rat cortex membranes. The conditions noted are these: displacement of 3H pyrilamine (2 nM final), rat cortex homogenate, 30 minute incubation at room temperature; Ki from IC50 with the Cheng-Prusoff equation. As to the method:
Antihistaminic potential is measured by affinity of a test compound for [^3H] pyrilamine binding sites associated with the antagonist component of H1-histaminergic receptors in animal brain membranes. Affinity for this receptor is indicative of the potential of a test compound to interact with central and peripheral H1-histaminergic receptors.
The following method is used to determine the affinity of test compounds for [^3H] pyrilamine binding sites in rat cortex.
The brains of young male rats are removed. The cortici are dissected and stored at -20°C or immediately used. The tissue is homogenized in 10 ml of ice-cold […] K/NaPO4 buffer (pH 7.4) using a Polytron (setting 6 for 15 seconds). […]
The brains of young male rats are removed. […] The filters are either transferred to scintillation vials and 10 ml Quicksafe A is added for liquid scintillation spectrometry or a thin layer of solid scintillant is melted onto the filters and the filters then counted using a betaplate beta counter. Specific binding of ^3H pyrilamine is measured as the excess over blanks taken in the presence of 2.10-6 M promethazine. Protein content of the membranes is determined by the method of Lowry et al., J. Biol. Chem. 193, 265-275 (1951). Displacement curves are analyzed using the GraphPad (GraphPad Software, Inc.) or similar program to obtain Hill slopes and IC50 values. […]

Each structure is given as a SMILES string. pKi: −log10 of the molar value.

T1 sequence (P31390 whole entry): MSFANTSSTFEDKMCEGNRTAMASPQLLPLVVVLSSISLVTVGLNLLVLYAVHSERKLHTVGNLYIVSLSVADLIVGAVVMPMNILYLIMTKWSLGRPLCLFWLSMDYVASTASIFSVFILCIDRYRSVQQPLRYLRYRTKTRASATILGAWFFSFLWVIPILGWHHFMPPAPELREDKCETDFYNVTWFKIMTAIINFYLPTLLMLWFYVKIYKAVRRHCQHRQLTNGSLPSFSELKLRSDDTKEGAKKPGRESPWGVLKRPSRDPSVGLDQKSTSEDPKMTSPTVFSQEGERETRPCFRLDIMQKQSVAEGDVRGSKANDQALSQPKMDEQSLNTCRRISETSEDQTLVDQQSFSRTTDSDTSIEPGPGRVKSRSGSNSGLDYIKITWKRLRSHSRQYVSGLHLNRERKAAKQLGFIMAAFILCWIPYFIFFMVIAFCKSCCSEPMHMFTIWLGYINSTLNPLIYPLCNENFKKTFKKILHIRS

For `CC(C)(C)c1ccc(C(O)CCCN2CCC(C(O)(c3ccccc3)c3ccccc3)CC2)cc1` (stereo not drawn) [Terfenadine, α-[4-(1,1-dimethylethyl)phenyl]-4-(hydroxydiphenylmethyl)-1-piperidinebutanol], the first pass metabolism in data set [1] is 99%. The compound `CC(CO)(C(=O)O)c1ccc(C(O)CCCN2CCC(C(O)(c3ccccc3)c3ccccc3)CC2)cc1` (stereo not drawn) [4-[1-hydroxy-4-[4-(hydroxydiphenylmethyl)-1-piperidinyl]butyl]-α-(hydroxymethyl)-α-methyl-benzeneacetic acid] had a negative-log Ki (pKi) in data set [2] of 6.44.

Usually pKi stands for −log10 of the Ki, conventionally taken in molar units. Lower therefore signals a large Ki.
